In patent US9833497B2, “Human originated EGF domain proteins and use of the same” (CHENGDU SOURCEBIO LIMITED-LIABILITY COMPANY, priority 2013, dated 2017):

Key:
Type in all cases: cell-based
[1] = system: Proteus mirabilis; experiment: MIC against Gram-negative bacteria: Proteus mirabilis
Method in brief: (§1)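 Bacteria grown in LB at 37° C with shaking to McFarland 0.5, pelleted and resuspended in fresh LB, then seeded at 5×10^5 CFU/mL per well. Purified recombinant human EGF domain proteins were two-fold serially diluted in triplicate and plates shaken at 37° C, 175 rpm. MIC is the lowest protein concentration with no bacterial growth.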

[2] = system: Citrobacter diversus; experiment: MIC against Gram-negative bacteria: Citrobacter diversus
Method in brief: as §1

[3] = system: Enterobacter cloacae; experiment: MIC against Gram-negative bacteria: Enterobacter cloacae
Method in brief: as §1

[4] = system: Pseudomonas aeruginosa; experiment: MIC against Gram-negative bacteria: Pseudomonas aeruginosa
Method in brief: as §1

[5] = system: Aeromonas hydrophila; experiment: MIC against Gram-negative bacteria: Aeromonas hydrophila
Method in brief: as §1

[6] = system: Proteus vulgaris; experiment: MIC against Gram-negative bacteria: Proteus vulgaris
Method in brief: as §1

[7] = system: E. coli BL21; experiment: MIC against Gram-negative bacteria: E. coli BL21; settings: E. coli BL21
Method in brief: as §1

[8] = system: Serratia marcescens; experiment: MIC against Gram-negative bacteria: Serratia marcescens
Method in brief: as §1

[9] = system: Klebsiella pneumonia; experiment: MIC against Gram-negative bacteria: Klebsiella pneumonia
Method in brief: as §1

[10] = system: E. coli DH5α; experiment: Antibacterial activity: MIC and growth curve against E. coli DH5α in 96-well plate; settings: minimal inhibitory concentration against E. coli DH5α; 96-well plate, 5×10^5 CFU/mL, 37° C., judged after 8 h
Method in brief: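 Log-phase bacteria (OD600 ~0.5) resuspended in LB at 5×10^5 CFU/mL, exposed to recombinant protein at 50, 25, 12.5 μg/mL final in triplicate, 37 °C shaking at 175 rpm. OD600 read every 30 min; MIC is lowest concentration showing no growth.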

[11] = system: Moraxella catarrhalis; experiment: MIC against Gram-negative bacteria: Moraxella catarrhalis
Method in brief: as §1

[12] = P. mirabilis, 10 h cultivation at 37° C., 5×10^5 CFU/mL
[13] = C. diversus, 10 h cultivation at 37° C., 5×10^5 CFU/mL
[14] = E. cloacae, 10 h cultivation at 37° C., 5×10^5 CFU/mL
[15] = P. aeruginosa, 10 h cultivation at 37° C., 5×10^5 CFU/mL
[16] = A. hydrophila, 10 h cultivation at 37° C., 5×10^5 CFU/mL
[17] = P. vulgaris, 10 h cultivation at 37° C., 5×10^5 CFU/mL
[18] = 10 h cultivation at 37° C., 5×10^5 CFU/mL
[19] = S. marcescens, 10 h cultivation at 37° C., 5×10^5 CFU/mL
[20] = K. pneumonia, 10 h cultivation at 37° C., 5×10^5 CFU/mL
[21] = M. catarrhalis, 10 h cultivation at 37° C., 5×10^5 CFU/mL
[22] = Proteus mirabilis, 96-well plate, 5×10^5 CFU/mL, 37° C., 10 h
[23] = Citrobacter diversus, 96-well plate, 5×10^5 CFU/mL, 37° C., 10 h
[24] = Enterobacter cloacae, 96-well plate, 5×10^5 CFU/mL, 37° C., 10 h
[25] = Pseudomonas aeruginosa, 96-well plate, 5×10^5 CFU/mL, 37° C., 10 h
[26] = Aeromonas hydrophila, 96-well plate, 5×10^5 CFU/mL, 37° C., 10 h
[27] = Proteus vulgaris, 96-well plate, 5×10^5 CFU/mL, 37° C., 10 h
[28] = 96-well plate, 5×10^5 CFU/mL, 37° C., 10 h
[29] = Serratia marcescens, 96-well plate, 5×10^5 CFU/mL, 37° C., 10 h
[30] = Klebsiella pneumonia, 96-well plate, 5×10^5 CFU/mL, 37° C., 10 h
[31] = Moraxella catarrhalis, 96-well plate, 5×10^5 CFU/mL, 37° C., 10 h

Substance | MIC (μg/mL) P. mirabilis [1, 12] [µg/mL] | MIC (μg/mL) C. diversus [2, 13] [µg/mL] | MIC (μg/mL) E. cloacae [3, 14] [µg/mL] | MIC (μg/mL) P. aeruginosa [4, 15] [µg/mL] | MIC (μg/mL) A. hydrophila [5, 16] [µg/mL] | MIC (μg/mL) P. vulgaris [6, 17] [µg/mL] | MIC (μg/mL) E. coli BL21 [7, 18] [µg/mL] | MIC (μg/mL) S. marcescens [8, 19] [µg/mL] | MIC (μg/mL) K. pneumonia [9, 20] [µg/mL] | MIC [10] [µg/mL] | MIC (μg/mL) M. catarrhalis [11, 21] [µg/mL] | other results
PRT186 (STLSCADSPCFNGGSCRERNQGANYACECPPNFTGSNCE; listed as Homo sapiens) | 12.5 | 12.5 | 50 | 12.5 | 25 | 25 | 50 | 12.5 | 25 | 12.5 | 25 | 
PRT220 (DINECETTNECREDEMCWNYHGGFRCYPRNPCQDPYILTPENRCV; listed as Homo sapiens) | 12.5 | 12.5 | 12.5 | 12.5 | 25 | 12.5 | 25 | 50 | 25 | 25 | 12.5 | 
PRT1335 (MTDICKSDNPCHRNANCTTVAPGRTECICQKGYVGDGLTCY; listed as Homo sapiens) |  |  |  |  |  |  |  |  |  | 50 |  | MIC against P. mirabilis [1, 22]: 25 µg/mL; MIC against C. diversus [2, 23]: 25 µg/mL; MIC against E. cloacae [3, 24]: 50 µg/mL; MIC against P. aeruginosa [4, 25]: 50 µg/mL; MIC against A. hydrophila [5, 26]: 12.5 µg/mL; MIC against P. vulgaris [6, 27]: 12.5 µg/mL; MIC against E. coli BL21 [7, 28]: 12.5 µg/mL; MIC against S. marcescens [8, 29]: 50 µg/mL; MIC against K. pneumonia [9, 30]: 12.5 µg/mL; MIC against M. catarrhalis [11, 31]: 50 µg/mL
PRT178 (SGVTCADGPCFNGGLCVGGADPDSAYICHCPPGFQGSNCE; listed as Homo sapiens) | 50 | 50 | 50 | 25 | 12.5 | 12.5 | 50 | 25 | 12.5 | 25 | 12.5 | 
PRT6 (TRKLCSLDNGDCDQFCHEEQNSVVCSCARGYTLADNGKACI; listed as Homo sapiens) |  |  |  |  |  |  |  |  |  | 50 |  | MIC (μg/mL) P. mirabilis [1, 22]: 12.5 µg/mL; MIC (μg/mL) C. diversus [2, 23]: 25 µg/mL; MIC (μg/mL) E. cloacae [3, 24]: 25 µg/mL; MIC (μg/mL) P. aeruginosa [4, 25]: 25 µg/mL; MIC (μg/mL) A. hydrophila [5, 26]: 12.5 µg/mL; MIC (μg/mL) P. vulgaris [6, 27]: 25 µg/mL; MIC (μg/mL) E. coli BL21 [7, 28]: 50 µg/mL; MIC (μg/mL) S. marcescens [8, 29]: 25 µg/mL; MIC (μg/mL) K. pneumonia [9, 30]: 50 µg/mL; MIC (μg/mL) M. catarrhalis [11, 31]: 25 µg/mL
PRT971 (DINDCDPNPCLNGGSCQDGVGSFSCSCLPGFAGPRCA; listed as Homo sapiens) |  |  |  |  |  |  |  |  |  | 50 |  | MIC ([1]; P. mirabilis, 10 h cultivation at 37° C.): 50 µg/mL; MIC ([2]; C. diversus, 10 h cultivation at 37° C.): 12.5 µg/mL; MIC ([3]; E. cloacae, 10 h cultivation at 37° C.): 25 µg/mL; MIC ([4]; P. aeruginosa, 10 h cultivation at 37° C.): 50 µg/mL; MIC ([5]; A. hydrophila, 10 h cultivation at 37° C.): 50 µg/mL; MIC ([6]; P. vulgaris, 10 h cultivation at 37° C.): 12.5 µg/mL; MIC ([7]; 10 h cultivation at 37° C.): 12.5 µg/mL; MIC ([8]; S. marcescens, 10 h cultivation at 37° C.): 25 µg/mL; MIC ([9]; K. pneumonia, 10 h cultivation at 37° C.): 100 µg/mL; MIC ([11]; M. catarrhalis, 10 h cultivation at 37° C.): 25 µg/mL
PRT214 (DDNECGNLTQSCGENANCTNTEGSYYCMCVPGFRSSSNQDRFITNDGTVCI; listed as Homo sapiens) | 12.5 | 12.5 | 12.5 | 12.5 | 25 | 25 | 25 | 12.5 | 25 | 12.5 | 25 | 
